Assay results as given in US20020106348A1, “Cancer therapeutics involving the administration of 2-methoxyestradiol and an agent that increases intracellular superoxide anion” (priority 2000, published 2002).
Read-outs that look alike come from different tables or passages of the source.

Key:
leukemia cell lines = assay: Apoptosis induction in leukemia cell lines; type: cell-based, human; conditions: leukemia cell lines tested
HL-60 [1] = assay: H2O2 generation in cell culture, HL-60 cells; type: cell-based, human
xanthine oxidase = assay: Effect on xanthine oxidase; type: biochemical; conditions: 1-100 μM
HL-60 [2] = assay: Apoptosis / nucleosomal DNA fragmentation in HL-60 cells; type: cell-based, human
CLL cells [3] = system: CLL cells
CuZnSOD = assay: Inhibition of CuZnSOD by estrogen derivatives; type: biochemical; conditions: FIG. 20
bovine CuZnSOD = biological target: T1, bovine CuZnSOD (Bos taurus, UniProt P00442); assay: In vitro SOD activity assay, bovine CuZnSOD; type: biochemical; conditions: purified enzyme; read-out: IC50, inhibition of bovine CuZnSOD
T1 construct: purchased Boehringer Mannheim
T1 sequence (P00442 whole entry): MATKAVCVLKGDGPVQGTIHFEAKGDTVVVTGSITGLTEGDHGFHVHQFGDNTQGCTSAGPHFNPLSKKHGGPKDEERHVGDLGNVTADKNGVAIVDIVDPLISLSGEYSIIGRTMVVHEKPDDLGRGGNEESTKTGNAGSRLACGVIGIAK
Protocol: (§1) A spectrophotometric assay was used to determine the effect of 2-methoxyestradiol (2-ME) on SOD activity in vitro with purified enzymes (bovine CuZnSOD from Boehringer Mannheim; human CuZnSOD and E. coli MnSOD from Sigma). The reactions contained 2.5 ml of 50 mM Na2CO3, 0.1 ml of 3 mM xanthine, 0.1 ml of 3 mM EDTA, and 0.1 ml of 0.8 mM XTT (3′-(1-[phenylamino-carbonyl]3,4-tetrazolium)-bis(4-methoxy-6-nitro)benzene-sulfonic acid hydrate), and the indicated concentrations of SOD and 2-ME. Xanthine oxidase (0.1 ml, 64 mU/ml) was added to start the reaction. After incubation at 24° C. for 30 min, the absorbance at 470 nm was measured. The relative activity (RA) of SOD was calculated by the following formula: […]
(§2) where a is the absorbance of reaction without SOD, b is the absorbance of reaction with SOD but without 2-ME, c is the absorbance of reaction with SOD in the presence of 2-ME. All values were subtracted by the background reading of the blank. In separate experiments using nitro blue tetrazolium or cytochrome c as substrates for SOD assay, 2-ME and DMSO (as a solvent for 2-ME) interfered with the calorimetric reaction. These artifacts preclude the use of NBT or cytochrome c as the substrates for measuring the effect of 2-ME on SOD activity. Neither 2-ME nor DMSO affect the calorimetric reaction of XTT.

human DNA polymerase α = human DNA polymerase α (Homo sapiens, UniProt P09884); assay: Effect on DNA polymerase α; type: biochemical; conditions: 1-100 μM
Sequence of human DNA polymerase α (P09884 whole entry): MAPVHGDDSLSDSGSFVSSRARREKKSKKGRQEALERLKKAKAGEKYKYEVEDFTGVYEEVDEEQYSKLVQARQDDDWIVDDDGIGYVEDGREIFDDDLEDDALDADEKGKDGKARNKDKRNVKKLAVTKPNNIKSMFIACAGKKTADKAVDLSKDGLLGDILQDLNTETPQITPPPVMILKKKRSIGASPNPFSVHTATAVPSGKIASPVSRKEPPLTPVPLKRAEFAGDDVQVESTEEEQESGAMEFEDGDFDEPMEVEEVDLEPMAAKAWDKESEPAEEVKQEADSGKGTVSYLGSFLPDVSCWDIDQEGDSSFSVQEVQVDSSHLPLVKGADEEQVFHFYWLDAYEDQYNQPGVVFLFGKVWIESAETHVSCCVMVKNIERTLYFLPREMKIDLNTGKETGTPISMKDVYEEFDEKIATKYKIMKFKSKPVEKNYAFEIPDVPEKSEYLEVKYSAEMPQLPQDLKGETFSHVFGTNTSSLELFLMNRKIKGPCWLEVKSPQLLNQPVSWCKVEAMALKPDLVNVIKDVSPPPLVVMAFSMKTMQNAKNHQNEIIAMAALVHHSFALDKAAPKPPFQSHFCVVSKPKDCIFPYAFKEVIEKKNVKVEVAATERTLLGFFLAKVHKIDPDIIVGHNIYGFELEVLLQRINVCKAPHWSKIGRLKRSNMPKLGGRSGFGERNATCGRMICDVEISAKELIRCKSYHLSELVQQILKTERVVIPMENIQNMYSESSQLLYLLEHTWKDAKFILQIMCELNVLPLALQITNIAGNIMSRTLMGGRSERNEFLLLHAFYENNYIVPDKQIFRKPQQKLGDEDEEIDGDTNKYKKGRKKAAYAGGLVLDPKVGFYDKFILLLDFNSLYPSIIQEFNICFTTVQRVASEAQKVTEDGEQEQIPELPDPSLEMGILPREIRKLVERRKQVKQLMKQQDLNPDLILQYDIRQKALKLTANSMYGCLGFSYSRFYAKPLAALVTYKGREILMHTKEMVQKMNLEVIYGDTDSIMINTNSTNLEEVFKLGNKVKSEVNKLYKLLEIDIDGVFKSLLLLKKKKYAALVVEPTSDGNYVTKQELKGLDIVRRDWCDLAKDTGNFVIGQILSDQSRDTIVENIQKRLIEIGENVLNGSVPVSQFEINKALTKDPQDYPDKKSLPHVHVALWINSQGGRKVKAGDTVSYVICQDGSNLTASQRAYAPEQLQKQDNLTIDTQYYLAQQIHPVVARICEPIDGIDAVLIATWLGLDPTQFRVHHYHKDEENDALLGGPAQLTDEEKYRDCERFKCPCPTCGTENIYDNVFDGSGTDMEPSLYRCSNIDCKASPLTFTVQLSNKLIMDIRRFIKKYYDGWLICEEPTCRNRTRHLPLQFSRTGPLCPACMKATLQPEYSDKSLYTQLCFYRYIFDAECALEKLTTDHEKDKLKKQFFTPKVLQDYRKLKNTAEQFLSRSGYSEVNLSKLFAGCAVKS

HL-60 [4] = assay: MTT assay, HL-60 cells; type: cell-based; conditions: Homo sapiens, HL-60 (no p53)
K562 = assay: MTT assay, K562 cells; type: cell-based; conditions: Homo sapiens, K562 (no p53)
AML cells = assay: MTT assay, primary AML cells; type: cell-based, human; conditions: 30 μM, 6 patients
ML-1 [5] = assay: Apoptosis / nucleosomal DNA fragmentation in ML-1 cells; type: cell-based, human; conditions: 1 μM; ML-1 (wt p53)
normal lymphocytes [6] = assay: DNA fragmentation in normal lymphocytes; type: cell-based, human; conditions: 0-30 μM, additional 3 days
normal lymphocytes [7] = assay: MTT assay, normal lymphocytes from healthy donors; type: cell-based, human; conditions: normal lymphocytes from 8 healthy donors; MTT 72 h / 96 h
[8] = system: bovine alkaline phosphatase; assay: Effect on alkaline phosphatase (removal of 5'-phosphate from [14C]GMP); type: biochemical; conditions: 1-100 μM
PHA-treated lymphocytes = assay: MTT assay, PHA-stimulated lymphocytes; type: cell-based, human; conditions: 3-day drug incubation
HL-60 cells = assay: Cellular O2^- by flow cytometry, HL-60 cells; type: cell-based, human; conditions: 0.25 μM
human CuZnSOD = biological target: T2, human CuZnSOD (Homo sapiens, UniProt P00441); assay: In vitro SOD activity assay (xanthine/xanthine oxidase, XTT), human CuZnSOD; type: biochemical; conditions: purified enzyme; read-out: IC50, inhibition of human CuZnSOD
T2 construct: purchased Sigma
T2 sequence (P00441 whole entry): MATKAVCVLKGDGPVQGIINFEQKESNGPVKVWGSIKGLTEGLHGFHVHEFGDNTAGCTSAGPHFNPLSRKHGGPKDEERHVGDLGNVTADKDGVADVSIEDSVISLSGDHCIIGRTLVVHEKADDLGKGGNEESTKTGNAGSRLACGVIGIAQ

CEM = assay: MTT assay, CEM leukemia cells; type: cell-based; conditions: Homo sapiens, CCRF-CEM, CEM (mutant p53)
Raji = assay: MTT assay, Raji cells; type: cell-based; conditions: Homo sapiens, Raji (mutant p53)
CLL cells [9] = assay: Cellular O2^- by hydroethidine flow cytometry, CLL cells; type: cell-based, human
Protocol: The method using hydroethidine to detect O2^− in tissue sections was adapted for quantitation of intracellular O2^− by flow cytometry analysis. This assay is based on the unique chemical properties of hydroethidine, a weak blue fluorescent dye which is selectively converted by O2^− to ethidium with a bright red fluorescence. The control and drug-treated cells (1.5×10^6/sample) were incubated with hydroethidine (20 ng/ml) for 60 min, washed twice with 3 ml PBS, resuspended in 2 ml PBS, and then analyzed within 1 h by flow cytometry, using the red laser channel.

ML-1 cells = assay: Cellular O2^- by hydroethidine flow cytometry, ML-1 cells; type: cell-based, human; conditions: ML-1, 1 μM, 5 h; control 4.3
SOD1 protein = assay: Immunoblot of SOD1 protein in ML-1 cells; type: cell-based, human; conditions: ML-1 cells at 10 h
CML cells = assay: MTT assay, primary CML cells; type: cell-based, human; conditions: 30 μM, 3 patients
ALL cells = assay: MTT assay, primary ALL cells; type: cell-based, human; conditions: 30 μM, 2 patients
CuZnSOD (SOD1) mRNA = assay: cDNA microarray assay of gene expression; type: cell-based, human; conditions: 5 h after 2-ME incubation; normalized by three internal standards
Text: The Atlas™ Human cDNA Expression Array I and the Atlas™ Human Cancer cDNA Expression Array (ClonTech Laboratories, Inc.) were used in this study. One microgram of mRNA isolated from the control or drug-treated cells was converted to radioactive cDNA by reverse transcription in the presence of [α-^32P]-dATP. The ^32P-labeled cDNA was then denatured and hybridized to the eDNA expression arrays according to the procedures recommended by the manufacturer. The radioactivity on the membranes was quantified by a phosphoimager.

ML-1 [10] = assay: H2O2 generation in cell culture, ML-1 cells; type: cell-based, human
E. coli MnSOD = E. coli MnSOD (Escherichia coli, UniProt P00448); assay: In vitro SOD activity assay, E. coli MnSOD; type: biochemical; conditions: purified enzyme; read-out: IC50, inhibition of E. coli MnSOD
Sequence of E. coli MnSOD (P00448 whole entry): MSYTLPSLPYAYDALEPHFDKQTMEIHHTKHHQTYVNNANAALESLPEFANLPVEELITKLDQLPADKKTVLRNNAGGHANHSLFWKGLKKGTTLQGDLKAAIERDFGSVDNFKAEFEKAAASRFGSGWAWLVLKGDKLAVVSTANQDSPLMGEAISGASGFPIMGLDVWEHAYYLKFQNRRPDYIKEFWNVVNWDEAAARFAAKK
Protocol: as §1, §2

ML-1 [11] = assay: MTT assay, ML-1 leukemia cells; type: cell-based; conditions: Homo sapiens, ML1, ML-1 (wt p53)
SOD = SOD inhibition in vitro (restated, enzyme not specified); type: biochemical; conditions: restated in discussion

Compound: COc1cc2c(cc1O)CC[C@@H]1[C@@H]2CC[C@]2(C)[C@@H](O)CC[C@@H]12 [2-ME, 1,3,5(10)-estratrien-2,3,17b-triol 2 methylether]
- concentrations inducing apoptosis (leukemia cell lines): 1 to 10 µM
- H2O2 production (HL-60 [1]): concentration-dependent decrease of H2O2
- effect on xanthine oxidase (xanthine oxidase): little effect
- apoptotic morphology and nucleosomal DNA fragmentation (HL-60 [2]; 1 μM, HL-60 (p53−)): Typical apoptotic morphology and nucleosomal DNA fragmentation were observed
- DNA fragmentation (apoptosis) in HL-60 cells (HL-60 [2]; estrogen derivatives, FIG. 20): induced DNA fragmentation
- cell survival (CLL cells [3]; 30 μM, CLL cells, 31 patients): 32.7%
- sensitivity to single agent (CLL cells [3]; 2-ME-resistant CLL cells): insensitive to either drug alone
- toxicity to CLL cells versus normal lymphocytes (CLL cells [3]; 10 and 30 μM, p<0.0001): significantly more toxic to CLL cells than to normal lymphocytes
- sensitivity to single agent (CLL cells [3]; CLL cells of the two sensitive patients): relatively sensitive
- cell survival in CLL cells (CLL cells [3]; FIGS. 6-8, MTT 72-96 h): substantial loss of cell survival
- cell survival (CLL cells [3]; primary leukemia cells from a CLL patient, 2-ME alone (FIG. 32)): loss of cell survival
- inhibition of SOD activity (CuZnSOD): substantially inhibited SOD activity
- IC50 (bovine CuZnSOD): ~20 µM
- effect on DNA polymerase α (human DNA polymerase α): little effect
- IC50 (HL-60 [4]): < 1 µM
- IC50 (K562): < 1 µM
- cell survival (AML cells): 49.6%
- apoptotic morphology and nucleosomal DNA fragmentation (ML-1 [5]): Typical apoptotic morphology and nucleosomal DNA fragmentation were observed
- nucleosomal DNA fragmentation (normal lymphocytes [6]): no nucleosomal DNA fragmentation was detected
- cell survival (normal lymphocytes [7]): no apparent loss of cell survival
- effect on alkaline phosphatase [8]: little effect
- viability of PHA-treated lymphocytes (PHA-treated lymphocytes): remained viable
- proliferation of PHA-treated lymphocytes (PHA-treated lymphocytes; MTT, PHA 5 μg/ml): inhibited the proliferation
- cellular O2^− content (HL-60 cells): increase of cellular O2^−
- IC50 (human CuZnSOD): ~20 µM
- IC50 (CEM): < 1 µM
- IC50 (Raji): < 1 µM
- O2^− increase (CLL cells [9]; CLL cells, 30 μM): 226±37%
- cellular O2^− (CLL cells [9]; primary leukemia cells from a CLL patient, 2-ME alone): significant accumulation of cellular O2^−
- cellular O2^− content (ML-1 cells): 6.3 arbitrary units
- increase of SOD1 protein (SOD1 protein): 74%
- cell survival (CML cells): 54.7%
- cell survival (ALL cells): 56.5%
- expression of CuZnSOD mRNA, % of the control (CuZnSOD (SOD1) mRNA): 236%
- H2O2 production (ML-1 [10]): concentration-dependent decrease of H2O2
- IC50 (E. coli MnSOD): ~20 µM
- IC50 (ML-1 [11]): < 1 µM
- IC50 (SOD): ~20 µM
